Experiments:
[1] = molecular target: full-length human recombinant BTK (Homo sapiens (Human), UniProt Q06187); assay: Inhibition of Btk enzymatic activity (biochemical enzyme assay, Caliper); settings: 30° C., 60 minutes
Procedure: The inhibitory activity of the present compounds against Btk was assessed in a biochemical enzyme assay. Assay plates in 384 well format were prepared with 8-point serial dilutions for the test compounds on a Thermo CatX workstation equipped with a Innovadyne Nanodrop Express. The assay plates were prepared by addition of 50 nl per well of compound solution in 90% DMSO. The kinase reactions were started by stepwise addition of 4.5 μl per well of peptide/ATP-solution (4 μM FITC-Ahx-[…]-NH2, 164 μM ATP) in kinase buffer (50 mM HEPES, pH 7.5, 1 mM DTT, 0.02% Tween20, 0.02% BSA, 0.6% DMSO, 10 mM beta-glycerophosphate, and 10 μM sodium orthovanadate, 18 mM MgCl2, 1 mM MnCl2) and 4.5 μl per well of enzyme solution (6.4 nM full-length human recombinant BTK) in kinase buffer. Kinase reactions were incubated at 30° C. for 60 minutes and subsequently terminated by addition of 16 μl per well of stop solution (100 mM HEPES pH 7.5, 5% DMSO, 0.1% Caliper coating reagent, 10 mM EDTA, and 0.015% Brij35). Kinase reactions were analyzed on a Caliper LC3000 workstation by separating phosphorylated and unphosphorylated peptides and kinase activities were calculated from the amounts of newly formed phospho-peptide. Inhibition data were calculated by comparison to control reactions without enzyme (100% inhibition) and without inhibitors (0% inhibition). The concentration of inhibitor required for 50% inhibition (IC50) was calculated from the inhibition in response to inhibitor concentrations.

Btk [2] = molecular target: Btk (Homo sapiens (Human), UniProt Q06187); assay: Inhibition of cellular Btk activity: Btk-dependent FcG receptor-induced IL-8 secretion in differentiated THP1 cells; format: cell-based; settings: IgG-stimulated IL-8 secretion, 24 hours
Btk (Homo sapiens (Human), UniProt Q06187), sequence (Q06187 whole entry): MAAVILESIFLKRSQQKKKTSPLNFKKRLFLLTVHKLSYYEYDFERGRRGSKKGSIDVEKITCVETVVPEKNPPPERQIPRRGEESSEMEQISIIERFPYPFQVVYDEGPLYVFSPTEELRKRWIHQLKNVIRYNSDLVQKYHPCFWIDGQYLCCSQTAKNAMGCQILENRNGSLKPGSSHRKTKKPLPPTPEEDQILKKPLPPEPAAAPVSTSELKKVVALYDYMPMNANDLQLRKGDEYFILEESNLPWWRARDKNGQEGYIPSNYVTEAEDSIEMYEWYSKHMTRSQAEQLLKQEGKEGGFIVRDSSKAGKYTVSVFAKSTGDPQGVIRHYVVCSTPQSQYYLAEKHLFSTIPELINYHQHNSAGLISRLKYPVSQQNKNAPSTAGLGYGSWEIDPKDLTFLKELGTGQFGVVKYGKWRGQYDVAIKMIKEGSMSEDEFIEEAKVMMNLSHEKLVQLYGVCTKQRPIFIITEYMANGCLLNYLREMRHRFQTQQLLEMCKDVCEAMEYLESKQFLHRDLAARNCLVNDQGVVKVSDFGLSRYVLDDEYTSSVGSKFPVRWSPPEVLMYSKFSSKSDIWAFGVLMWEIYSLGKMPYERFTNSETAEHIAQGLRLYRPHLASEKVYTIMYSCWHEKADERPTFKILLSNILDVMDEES
Procedure: Alternatively, the present compounds might also be assessed for their capacity to inhibit Btk-dependent FcG receptor-induced IL-8 secretion in human cells. The human myeloid leukemia THP1 cell line (ATCC TIB202) was grown in RPMI 1640 medium supplemented with 10% FCS and 15 nM 1, 25-dihydroxy Vitamin D3 during 4 days before use to induced myeloid differentiation. A sufficient number of tissue-culture grade 384-well plates was coated with human IgG of unknown specificity by incubating overnight at 4° C. with 40 μl/well of a 50 μg/ml IgG solution in PBS. On the day of the experiment, plates were washed 5 times with 80 μl water on a Molecular Devices Aquamax DW4 plate washer. Solutions of the test compounds in 90% DMSO were added to each well on a Hamilton Microlab Star liquid handling station to 40 μl/well tissue culture medium and the total DMSO concentration was adjusted to 0.1%. Differentiated THP1 cells were then added in 40 μl/well to reach a final density of 5'000 cells/well in 80 μl culture medium. After 24 hours, IL-8 secretion was measured in the supernatant by the IL-8 HTRF assay following the protocol of the vendor (CisBio international). Inhibition data were calculated by comparison to control cultures without IgG stimulus enzyme (100% inhibition) and without inhibitors (0% inhibition). The concentration of inhibitor required for 50% inhibition (IC50) was calculated from the inhibition in response to inhibitor concentrations.

Btk [3] = molecular target: Btk (Rattus norvegicus, UniProt Q5S255); assay: Inhibition of Btk activity in blood: in vitro B cell activation assay (CD86) in rat whole blood; format: cell-based; settings: Lewis rat whole blood diluted to 50%, anti-rat IgM + IL-4, CD86 on CD45RA positive B cells, 24 hours
Btk (Rattus norvegicus, UniProt Q5S255), sequence (Q5S255 1-660): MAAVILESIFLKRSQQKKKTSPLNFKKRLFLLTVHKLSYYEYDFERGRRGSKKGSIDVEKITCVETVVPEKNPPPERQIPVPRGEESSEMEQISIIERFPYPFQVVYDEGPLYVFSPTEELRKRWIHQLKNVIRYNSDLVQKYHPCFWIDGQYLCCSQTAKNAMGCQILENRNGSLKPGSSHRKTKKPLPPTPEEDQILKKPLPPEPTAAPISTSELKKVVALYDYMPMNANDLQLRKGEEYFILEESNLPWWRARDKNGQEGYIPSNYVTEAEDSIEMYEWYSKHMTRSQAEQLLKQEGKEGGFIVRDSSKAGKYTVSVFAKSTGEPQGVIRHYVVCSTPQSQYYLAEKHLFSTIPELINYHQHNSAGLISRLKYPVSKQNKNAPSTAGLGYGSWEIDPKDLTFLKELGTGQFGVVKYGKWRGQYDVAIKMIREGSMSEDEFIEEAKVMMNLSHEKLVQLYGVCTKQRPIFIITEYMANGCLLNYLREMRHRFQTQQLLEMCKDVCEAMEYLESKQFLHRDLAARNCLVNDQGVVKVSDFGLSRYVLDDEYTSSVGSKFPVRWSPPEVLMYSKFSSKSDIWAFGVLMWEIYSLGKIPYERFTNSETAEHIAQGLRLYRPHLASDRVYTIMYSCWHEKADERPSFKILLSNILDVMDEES
Procedure: Alternatively, the inhibitory activity of the present compounds in blood was assessed in the following in vitro B cell activation assay. Whole blood was collected from the abdominal aorta of anaesthetized adult male Lewis rats and was anticoagulated with 100 U/ml sodium heparin. Blood was then diluted to 50% with high glucose DMEM (Amimed) supplemented with 100 U/ml penicillin, […] streptomycin, 2 mM L-glutamin, 50 mg/ml dextran 40 and 5% FCS (Fetaclone I, Gibco). Then, 190 μl prediluted blood was mixed in 96 well U-bottomed microtiter plates (Nunc) with 10 μl of serial dilutions of test compounds in DMSO. Cultures were incubated at 37° C., 5% CO2 for 1 hour, then 30 μl of rat IL-4 (Beckton-Dickinson, final concentration 5 ng/ml) and goat anti-rat IgM (Serotec, final concentration 15 ug/ml) were added and the cultures were incubated for 24 hours. Activation of B cells was measured by flow cytometry after staining for the B cell subset with PE-Cy5-labeled anti-ratCD45RA (Beckton-Dickinson) and for the activation marker CD86 (PE-labeled anti-rat CD86 (Beckton-Dickinson). All staining procedures were performed at RT for 30 min in the dark in 96-deep well V-bottomed microtiter plates (Corning) with BD Lysing Solution (Beckton-Dickinson). Cytometric data was acquired on a FACScalibur flow cytometer (BD Biosciences) and the subpopulation of lymphocytes were gated according to size and granularity and further analyzed for expression of CD45RA and the activation markers. Data for the inhibition of B cell activation were calculated from the percentage of cells positively stained for activation markers within the CD45RA positive population. Inhibition data were calculated by comparison to control cultures without anti-IgM and IL-4 (100% inhibition) and without inhibitors (0% inhibition). The concentration of inhibitor required for 50% inhibition (IC50) was calculated from the inhibition in response to inhibitor concentrations.

full-length human recombinant BTK, sequence (Q06187 whole entry): as the sequence (Q06187 whole entry) above

IC50 [1] [nM] | IC50 (Btk [3]) [nM] | Structure (SMILES) | IC50 (Btk [2]) [nM]
2 |  | CN(C)C(=O)N1CC=C(c2cc3c(-c4cccc(NC(=O)c5ccc(C(C)(C)O)cc5F)c4CO)ncnc3[nH]2)CC1 [Example 16, 4-(4-{3-[2-Fluoro-4-(1-hydroxy-1-methyl-ethyl)-benzoylamino]-2-hydroxymethyl-phenyl}-7H-pyrrolo[2,3-d]pyrimidin-6-yl)-3,6-dihydro-2H-pyridine-1-carboxylic acid dimethylamide] | 69
16 | 179 | Cc1c(NC(=O)N2CC(OC(C)C)C2)cc(F)cc1-c1ncnc2[nH]c(C3=CCN(C(=O)N(C)C)CC3)cc12 [Example 58, 4-(4-{5-Fluoro-3-[(3-isopropoxy-azetidine-1-carbonyl)-amino]-2-methyl-phenyl}-7H-pyrrolo[2,3-d]pyrimidin-6-yl)-3,6-dihydro-2H-pyridine-1-carboxylic acid dimethylamide] | 
2 | 112 | Cc1c(NC(=O)c2ccc(C(C)(C)CO)cc2)cc(F)cc1-c1ncnc2[nH]c(C3=CCN(C(=O)N(C)C)CC3)cc12 [Example 6, 4-(4-{5-Fluoro-3-[4-(2-hydroxy-1,1-dimethyl-ethyl)-benzoylamino]-2-methyl-phenyl}-7H-pyrrolo[2,3-d]pyrimidin-6-yl)-3,6-dihydro-2H-pyridine-1-carboxylic acid dimethylamide] | 
4 | 72 | Cc1c(NC(=O)c2ccc3c(c2)OCC3(C)C)cc(F)cc1-c1ncnc2[nH]c(C3=CCN(C(=O)N(C)C)CC3)cc12 [Example 2, 4-(4-{3-[(3,3-Dimethyl-2,3-dihydro-benzofuran-6-carbonyl)-amino]-5-fluoro-2-methyl-phenyl}-7H-pyrrolo[2′3-d]pyrimidin-6-yl)-3,6-dihydro-2H-pyridine-1-carboxylic acid dimethylamide] | 
7 | 414 | Cc1c(NC(=O)c2ccc(C3CC3)cc2)cc(F)cc1-c1ncnc2[nH]c(C3=CCN(C(=O)CO)CC3)cc12 [Example 32, 4-Cyclopropyl-N-(5-fluoro-3-{6-[1-(2-hydroxy-actyl)-1,2,3,6-tetrahydro-pyridin-4-yl]-7H-pyrrolo[2,3-d]pyrimidin-4-yl}-2-methyl-phenyl)benzamide] | 
7 |  | CC(C)(C)c1ccc(C(=O)Nc2cccc(-c3ncnc4[nH]c(C5=CCOCC5)cc34)c2CO)cc1 [Example 48, 4-tert-Butyl-N-{3-[6-(3,6-dihydro-2H-pyran-4-yl)-7H-pyrrolo[2,3-d]pyrimidin-4-yl]-2-hydroxymethyl-phenyl}-benzamide] | 
17 |  | CN(C)C(=O)N1CC=C(c2cc3c(-c4cccc(N5CCc6cc(C7CC7)ccc6C5=O)c4CO)ncnc3[nH]2)CC1 [Example 46, 4-{4-[3-(6-Cyclopropyl-1-oxo-3,4-dihydro-1H-isoquinolin-2-yl)-2-hydroxymethyl-phenyl]-7H-pyrrolo[2,3-d]pyrimidin-6-yl}-3,6-dihydro-2H-pyridine-1-carboxylic acid dimethylamide] | 
15 |  | Cc1c(NC(=O)c2ccc(C(C)(C)C)cc2)cccc1-c1ncnc2[nH]c(C3=CCOCC3)cc12 [Example 64, 4-tert-Butyl-N-{3-[6-(3,6-dihydro-2H-pyran-4-yl)-7H-pyrrolo[2,3-d]pyrimidin-4-yl]-2-methyl-phenyl}-benzamide] | 
1 | 100 | CN(C)C(=O)N1CC=C(c2cc3c(-c4cccc(NC(=O)c5ccc(C6CC6)cc5)c4CO)ncnc3[nH]2)CC1 [Example 17, 4-{4-[3-(4-Cyclopropyl-benzoylamino)-2-hydroxymethyl-phenyl]-7H-pyrrolo[2,3-d]pyrimidin-6-yl}-3,6-dihydro-2H-pyridine-1-carboxylic acid dimethylamide] | 
9 |  | Cc1c(NC(=O)c2ccc(C(C)(C)C)cc2)cccc1-c1ncnc2[nH]c(C3=CCC4(CC3)OCCO4)cc12 [Example 65, 4-tert-Butyl-N-{3-[6-(1,4-dioxa-spiro[4.5]dec-7-en-8-yl)-7H-pyrrolo[2,3-d]pyrimidin-4-yl]-2-methyl-phenyl}-benzamide] | 
8 |  | Cc1c(NC(=O)c2ccc(C(C)(C)C)cc2)cccc1-c1ncnc2[nH]c(C3=CCC(N(C)C)CC3)cc12 (stereo not drawn) [Example 67, 4-tert-Butyl-N-{3-[6 (4 dimethylamino-cyclohex-1-enyl)-7H-pyrrolo[2,3-d]pyrimidin-4-yl]-2-methyl-phenyl}-benzamide] | 
13 |  | Cc1c(NC(=O)c2ccc(C3CC3)cc2)cc(F)cc1-c1ncnc2[nH]c(C3=CCN(C(=O)N(C)C)CC3)cc12 [Example 29, 4-{4-[3-(4-Cyclopropyl-benzoylamino)-5-fluoro-2-methyl-phenyl]-7H-pyrrolo[2′3-d]pyrimidin-6-yl}-3,6-dihydro-2H-pyridine-1-carboxylic acid dimethylamide] | 
2 |  | CN(C)C1CC=C(c2cc3c(-c4cccc(NC(=O)c5ccc(C(C)(C)C)cc5)c4CO)ncnc3[nH]2)CC1 (stereo not drawn) [Example 56, 4-tert-Butyl-N-{3-[6 (4 dimethylamino-cyclohex-1-enyl)-7H-pyrrolo[2,3-d]pyrimidin-4-yl]-2-hydroxymethyl-phenyl}-benzamide] | 
17 |  | Cc1c(NC(=O)c2ccc(C(C)(C)C)cc2)cccc1-c1ncnc2[nH]c(C3=CCN(S(C)(=O)=O)CC3)cc12 [Example 44, 4-tert-Butyl-N-{3-[6-(1 methanesulfonyl-1,2,3,6-tetrahydro-pyridin-4-yl)-7H-pyrrolo[2,3-d]pyrimidin-4-yl]-2-methyl-phenyl}-benzamide] | 
4 |  | Cc1c(NC(=O)c2ccc(S(F)(F)(F)(F)F)cc2)cc(F)cc1-c1ncnc2[nH]c(C3=CCN(C(=O)CO)CC3)cc12 [Example 36, N-(5-Fluoro-3-{6-[1-(2-hydroxy-acetyl)-1,2,3,6-tetrahydro-pyridin-4-yl]-7H-pyrrolo[2,3-d]pyrimidin-4-yl}-2-methyl-phenyl)-4-(pentafluoro-sulfanyl)-benzamide] | 
35 |  | Cc1c(NC(=O)c2ccc(C(C)(C)C)cc2)cc(F)cc1-c1ncnc2[nH]c(C3=CCS(=O)(=O)CC3)cc12 [Example 26, 4-tert-Butyl-N-{3-[6-(3,6-dihydro-1,1-dioxido-2H-thiopyran-4-yl)-7H-pyrrolo[2,3-d]pyrimidin-4-yl]-5-fluoro-2-methyl-phenyl}-benzamide] | 

Structure (SMILES) | IC50 [1] [nM] | IC50 (Btk [3]) [nM] | IC50 (Btk [2]) [nM]
CC(C)(C)c1ccc(C(=O)Nc2cccc(-c3ncnc4[nH]c(C5=CCN(C(=O)CF)CC5)cc34)c2CO)cc1 [Example 38, 4-tert-Butyl-N-(3-{6-[1-(2 fluoro-acetyl)-1,2,3,6-tetrahydro-pyridin-4-yl]-7H-pyrrolo[2,3-d]pyrimidin-4-yl}-2-hydroxymethyl-phenyl)-benzamide] | 27 |  | 20

— patent US9233111B2, “Pyrrolo pyrimidine derivatives” (NOVARTIS AG, priority 2011, dated 2016)
